In the NIST ThermoML archive (doi:10.1007/s10765-010-0902-x):
± gives the expanded uncertainty stated by the source.

Legend:
[1] = 298.15 K; 101 kPa; Liquid
[2] = refractive index (Na D-line) (dimensionless); conditions: 298.15 K; 101.33 kPa; Liquid; Standard Abbe refractometry
[3] = refractive index (Na D-line) (dimensionless); xn = mol fraction of the nth substance listed; conditions: 298.15 K, 101 kPa, Liquid, Standard Abbe refractometry
[4] = xn = mol fraction of the nth substance listed; conditions: 298.15 K, 101 kPa, Liquid; for viscosity: Capillary tube (Ostwald / Ubbelohde) method

CCCCCCl [1-chloropentane]
mass density [1]: 876.93 ± 0.47 kg/m3
refractive index [2]: 1.4097 ± 0.0004

CCCCCl [1-chlorobutane] + CCCCOC(C)=O
refractive index ([3]; x2 = 0): 1.3996 ± 0.0004
refractive index ([3]; x2 = 0.0503): 1.3989 ± 0.0004
refractive index ([3]; x2 = 0.1111): 1.3981 ± 0.0004
refractive index ([3]; x2 = 0.1527): 1.3976 ± 0.0004
refractive index ([3]; x2 = 0.2003): 1.3971 ± 0.0004
refractive index ([3]; x2 = 0.2996): 1.3961 ± 0.0004
refractive index ([3]; x2 = 0.3493): 1.3956 ± 0.0004
refractive index ([3]; x2 = 0.3978): 1.3952 ± 0.0004
refractive index ([3]; x2 = 0.4508): 1.3947 ± 0.0004
refractive index ([3]; x2 = 0.4997): 1.3943 ± 0.0004
refractive index ([3]; x2 = 0.55): 1.3939 ± 0.0004
refractive index ([3]; x2 = 0.5985): 1.3936 ± 0.0004
refractive index ([3]; x2 = 0.6501): 1.3933 ± 0.0004
refractive index ([3]; x2 = 0.7002): 1.393 ± 0.0004
refractive index ([3]; x2 = 0.7493): 1.3928 ± 0.0004
refractive index ([3]; x2 = 0.8042): 1.3925 ± 0.0004
refractive index ([3]; x2 = 0.85): 1.3923 ± 0.0004
refractive index ([3]; x2 = 0.8991): 1.3921 ± 0.0004
viscosity ([4]; x2 = 0.0503): 0.42 ± 0.005 mPa·s
viscosity ([4]; x2 = 0.1111): 0.432 ± 0.005 mPa·s
viscosity ([4]; x2 = 0.1527): 0.441 ± 0.005 mPa·s
viscosity ([4]; x2 = 0.2003): 0.451 ± 0.005 mPa·s
viscosity ([4]; x2 = 0.2996): 0.473 ± 0.005 mPa·s
viscosity ([4]; x2 = 0.3493): 0.484 ± 0.005 mPa·s
viscosity ([4]; x2 = 0.3978): 0.495 ± 0.005 mPa·s
viscosity ([4]; x2 = 0.4508): 0.507 ± 0.005 mPa·s
viscosity ([4]; x2 = 0.4997): 0.519 ± 0.005 mPa·s
viscosity ([4]; x2 = 0.55): 0.531 ± 0.005 mPa·s
viscosity ([4]; x2 = 0.5985): 0.543 ± 0.005 mPa·s
viscosity ([4]; x2 = 0.6501): 0.555 ± 0.005 mPa·s
viscosity ([4]; x2 = 0.7002): 0.568 ± 0.006 mPa·s
viscosity ([4]; x2 = 0.7493): 0.58 ± 0.006 mPa·s
viscosity ([4]; x2 = 0.8042): 0.594 ± 0.006 mPa·s
viscosity ([4]; x2 = 0.85): 0.606 ± 0.006 mPa·s
viscosity ([4]; x2 = 0.8991): 0.619 ± 0.006 mPa·s
mass density ([4]; x2 = 0): 880.87 ± 0.35 kg/m3
mass density ([4]; x2 = 0.0503): 880.41 ± 0.35 kg/m3
mass density ([4]; x2 = 0.1111): 879.89 ± 0.35 kg/m3
mass density ([4]; x2 = 0.1527): 879.56 ± 0.35 kg/m3
mass density ([4]; x2 = 0.2003): 879.19 ± 0.35 kg/m3
mass density ([4]; x2 = 0.2996): 878.52 ± 0.35 kg/m3
mass density ([4]; x2 = 0.3493): 878.23 ± 0.35 kg/m3
mass density ([4]; x2 = 0.3978): 877.97 ± 0.35 kg/m3
mass density ([4]; x2 = 0.4508): 877.72 ± 0.35 kg/m3
mass density ([4]; x2 = 0.4997): 877.51 ± 0.35 kg/m3
mass density ([4]; x2 = 0.55): 877.31 ± 0.35 kg/m3
mass density ([4]; x2 = 0.5985): 877.15 ± 0.35 kg/m3
mass density ([4]; x2 = 0.6501): 876.99 ± 0.35 kg/m3
mass density ([4]; x2 = 0.7002): 876.84 ± 0.35 kg/m3
mass density ([4]; x2 = 0.7493): 876.72 ± 0.36 kg/m3
mass density ([4]; x2 = 0.8042): 876.6 ± 0.36 kg/m3
mass density ([4]; x2 = 0.85): 876.51 ± 0.36 kg/m3
mass density ([4]; x2 = 0.8991): 876.43 ± 0.36 kg/m3

CCCCCCCCCl [1-chlorooctane]
mass density [1]: 868.71 ± 0.37 kg/m3
refractive index [2]: 1.4282 ± 0.0004

CCCCCCCl [1-chlorohexane]
mass density [1]: 873.39 ± 0.47 kg/m3
refractive index [2]: 1.4171 ± 0.0004

CCCCCCl [1-chloropentane] + CCCCOC(C)=O
refractive index ([3]; x2 = 0): 1.4097 ± 0.0004
refractive index ([3]; x2 = 0.05): 1.4081 ± 0.0004
refractive index ([3]; x2 = 0.1): 1.4065 ± 0.0004
refractive index ([3]; x2 = 0.15): 1.405 ± 0.0004
refractive index ([3]; x2 = 0.2): 1.4036 ± 0.0004
refractive index ([3]; x2 = 0.3): 1.401 ± 0.0004
refractive index ([3]; x2 = 0.35): 1.3998 ± 0.0004
refractive index ([3]; x2 = 0.4): 1.3987 ± 0.0004
refractive index ([3]; x2 = 0.5): 1.3967 ± 0.0004
refractive index ([3]; x2 = 0.6): 1.395 ± 0.0004
refractive index ([3]; x2 = 0.7019): 1.3936 ± 0.0004
refractive index ([3]; x2 = 0.75): 1.3931 ± 0.0004
refractive index ([3]; x2 = 0.7998): 1.3926 ± 0.0004
refractive index ([3]; x2 = 0.9): 1.3921 ± 0.0004
viscosity ([4]; x2 = 0.05): 0.55 ± 0.006 mPa·s
viscosity ([4]; x2 = 0.1): 0.552 ± 0.006 mPa·s
viscosity ([4]; x2 = 0.15): 0.554 ± 0.006 mPa·s
viscosity ([4]; x2 = 0.2): 0.557 ± 0.006 mPa·s
viscosity ([4]; x2 = 0.3): 0.563 ± 0.006 mPa·s
viscosity ([4]; x2 = 0.35): 0.567 ± 0.006 mPa·s
viscosity ([4]; x2 = 0.4): 0.571 ± 0.006 mPa·s
viscosity ([4]; x2 = 0.5): 0.58 ± 0.006 mPa·s
viscosity ([4]; x2 = 0.6): 0.591 ± 0.006 mPa·s
viscosity ([4]; x2 = 0.7019): 0.603 ± 0.006 mPa·s
viscosity ([4]; x2 = 0.75): 0.61 ± 0.006 mPa·s
viscosity ([4]; x2 = 0.7998): 0.616 ± 0.006 mPa·s
viscosity ([4]; x2 = 0.9): 0.631 ± 0.006 mPa·s
mass density ([4]; x2 = 0): 876.93 ± 0.47 kg/m3
mass density ([4]; x2 = 0.05): 876.71 ± 0.46 kg/m3
mass density ([4]; x2 = 0.1): 876.44 ± 0.45 kg/m3
mass density ([4]; x2 = 0.15): 876.14 ± 0.45 kg/m3
mass density ([4]; x2 = 0.2): 875.89 ± 0.44 kg/m3
mass density ([4]; x2 = 0.3): 875.46 ± 0.43 kg/m3
mass density ([4]; x2 = 0.35): 875.29 ± 0.42 kg/m3
mass density ([4]; x2 = 0.4): 875.2 ± 0.42 kg/m3
mass density ([4]; x2 = 0.5): 875.11 ± 0.4 kg/m3
mass density ([4]; x2 = 0.6): 875.15 ± 0.39 kg/m3
mass density ([4]; x2 = 0.7019): 875.34 ± 0.38 kg/m3
mass density ([4]; x2 = 0.75): 875.48 ± 0.38 kg/m3
mass density ([4]; x2 = 0.7998): 875.62 ± 0.37 kg/m3
mass density ([4]; x2 = 0.9): 875.94 ± 0.36 kg/m3

CCCCOC(C)=O [butyl ethanoate] + CCCCCl
refractive index ([3]; x1 = 1): 1.3918 ± 0.0004
mass density ([4]; x1 = 1): 876.28 ± 0.36 kg/m3
